Data from paper PMC4734386 (The Journal of organic chemistry, 2015).

Target: porcine pancreatic elastase (PPE) (Sus scrofa, UniProt P00772)
Assay: PPE enzyme assay
Type: biochemical

Sequence of porcine pancreatic elastase (PPE) (P00772 27-266): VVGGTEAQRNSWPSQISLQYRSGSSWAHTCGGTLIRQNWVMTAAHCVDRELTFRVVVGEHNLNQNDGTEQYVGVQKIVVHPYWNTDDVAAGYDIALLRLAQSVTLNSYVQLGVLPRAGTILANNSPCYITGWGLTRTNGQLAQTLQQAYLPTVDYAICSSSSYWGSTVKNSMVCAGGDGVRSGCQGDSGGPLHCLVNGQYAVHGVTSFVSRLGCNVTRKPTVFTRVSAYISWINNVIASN

CC(C)(C)C(=O)Oc1ccc(S(=O)(=O)Nc2ccccc2C(=O)NCC(=O)O)cc1 [sivelestat] was tested, and the IC50 was 3.08 µM.
